Measured values from patent US4281121A, “1,3,4-Thiadiazole-2-carboxylic acid derivatives, process for making the same and fungicidal and nematocidal compositions containing same” (Schering Aktiengesellschaft, priority 1978, dated 1981).
Like-named read-outs stand apart in the source and are kept apart here.

Legend:
[1] = test system: Helminthosporium gramineum; test: Seed treatment in open field tests for infestation by Helminthosporium gramineum (barley); format: in vivo
Method: Seed treatment in open field tests for infestation by Helminthosporium gramineum
The active agents were used in the form of pulverulent compositions. After about 8 months in case of winter barley and after about 3 months in case of summer barley the infested plants were counted and the activity was calculated by the formula [formula]

[2] = test system: Helminthosporium gram; conditions: about 5 weeks
Method: Treatment of barley seeds infested with Helminthosporium gram
After emergence, the plants were subjected to illumination for 12 hours per day. After about 5 weeks the infested plants were counted and the total number of plants for each test were also counted. The active agents tested were used as pulverulent compositions.

[3] = test system: Venturia inaequalis; test: Prophylactic leaf treatment of apples in open field test against Venturia inaequalis; format: in vivo; conditions: 3 weeks
[4] = test system: Plasmopara viticola; test: Prophylactic leaf treatment of grapevines in the hothouse against Plasmopara viticola; format: in vivo
Method: Effects of prophylactic leaf treatment of grapevines in the hothouse against Plasmopara viticola
Young grapevine plants having from 5 to 8 leaves were sprayed dripping wet with the concentrations of active agents stated in the table below. After drying of the spray deposit the leaves were sprayed with an aqueous suspension of sporangia of the fungus (about 20,000 per ml); the spraying was applied to the bottom side of the leaves. The plants were then immediately incubated in a hothouse at a temperature of 22° to 24° C. and at maximum water saturation in the atmosphere. Beginning with the second day the humidity of the air was reduced for 3 to 4 days to normal level (30 to 70% saturation) and was then maintained for another day on the level of full saturation. Subsequently, the percentage portion of the fungus infested surface of each leaf was noted and the average per treatment was calculated in order to determine the fungicidal activity. This was done on the basis of the following formula: [formula]
The active compounds were applied in the form of a 20% concentration spray powder.

[5] = test system: Tilletia caries; test: Treatment of oat seeds infested with Tilletia caries (spore germination); format: in vivo
[6] = test system: Pythium ultimum; test: Threshold concentration test for use of the compounds against Pythium ultimum (infested soil, garden peas); format: in vivo; design: key to root evaluation (1-4): 4: white roots without fungous necrosis; 3: white roots, minor fungous necrosis; 2: brown roots, already more pronounced fungous necrosis; 1: heavy fungous necrosis, roots rotted; conditions: for root evaluation (1-4): 3 weeks; for number of sound peas: 20 grains per dish, 3 weeks at 20-24° C.
Method: Threshold concentration test for use of the compounds against Pythium ultimum
A 20% concentration of certain pulverulent active agents as listed below were mixed in uniform manner into a soil which had been heavily infested by Pythium ultimum. The thus treated soil was then placed into clay dishes of a capacity of 0.5 l earth. Without any intermediate time lapse 20 grain of garden peas (Pisum sativum L. convar. medullare Alef.) of the type "Wunder von Kelvedon" were then seeded into each of the clay dishes. After a cultivation period of three weeks at 20° to 24° C. in a hothouse the number of sound peas was determined and a root evaluation was carried out. The active agents amounts and results appear from the following table.
(§1) The root evaluation was carried out on a scale from 1 to 4 as follows: […]

[7] = test system: Piricularia oryzae; format: in vivo; conditions: 5 days
[8] = test system: Fusarium avenaceum; test: Threshold concentration test in case of Fusarium avenaceum (infested soil, garden peas); format: in vivo; conditions: for number of sound peas: 20 grains per dish, 18 days at 20-24° C.; for root evaluation (1-4): 18 days
Method: Threshold concentration test in case of Fusarium avenaceum
A 20% pulverulent active agent of the type further identified in the table below was mixed in uniform manner with a soil which had been heavily infested with Fusarium avenaceum. The thus treated soil was then placed into clay dishes of a capacity of 0.5 l of earth. Each dish was seeded without any intervening time with 20 grains of garden peas (Pisum sativum L. convar. medullare Alef.) of the type "Wunder von Kelvedon". After a cultivation time of 18 days at 20° to 24° C. in a hot house the number of sound peas was determined and a root evaluation was carried out. The active agents employed, the amounts and results appear from the following table.
as §1

[9] = concentration of active agent 0.005 (in gram)
[10] = concentration of active agent 0.025 (in gram)
[11] = concentration of active agent 0.005 (unit not given)
[12] = concentration of active agent 0.025 (unit not given)
[13] = concentration of active agent 0.1 (percentages)
[14] = concentration of active agent 0.001 (unit not given)

SMILES | % activity ([2]; 50 g active agent per 100 kg) | % activity ([5]; 20 g active agent per 100 kg) | % activity ([5]; 50 g active agent per 100 kg) | root evaluation (1-4) ([6]; 20 mg/l soil) | number of sound peas ([6]; 20 mg/l soil) | root evaluation (1-4) ([6]; 40 mg/l soil) | number of sound peas ([6]; 40 mg/l soil) | root evaluation (1-4) ([6]; 80 mg/l soil) | number of sound peas ([6]; 80 mg/l soil) | % activity [7, 13] | further results
CCCNC(=O)c1nnc([S+](C)[O-])s1 (centres unmarked) [5-methylsulfinyl-1,3,4-thiadiazole-2-carboxylic acid-propylamide] | 100% | 100% | 100% | 4 | 14 | 4 | 15 | 4 | 15 | – | % activity ([1]; summer barley, 50 g active agent/100 kg barley, about 3 months): 97%; % activity ([2]; 10 g active agent per 100 kg): 75%; % activity ([2]; 20 g active agent per 100 kg): 98%; % activity [3, 9]: 62%; % activity [3, 10]: 99.7%; % activity [4, 11]: 75%; % activity [4, 12]: 99%; % activity ([5]; 10 g active agent per 100 kg): 99%
CN(C)C(=O)c1nnc(S(C)(=O)=O)s1 [5-methylsulfonyl-1,3,4-thiadiazole-2-carboxylic acid-dimethylamide] | 98% | – | – | 4 | 18 | 4 | 20 | 4 | 18 | 98% | % activity ([1]; winter barley, 50 g active agent/100 kg barley, about 8 months): 98%; % activity ([1]; winter barley, 100 g active agent/100 kg barley, about 8 months): 100%; % activity ([2]; 20 g active agent per 100 kg): 87%; % activity ([7]; concentration of active agent 0.02 (percentages)): 91%
CC(C)S(=O)(=O)c1nnc(C(N)=O)s1 [5-isopropylsulfonyl-1,3,4-thiadiazole-2-carboxamide] | – | – | – | 4 | 17 | 4 | 18 | 4 | 19 | 40% | –
CCCS(=O)(=O)c1nnc(C(=O)N(C)C)s1 [5-propylsulfonyl-1,3,4-thiadiazole-2-carboxylic acid-dimethylamide] | 93% | 100% | 100% | 2 | 17 | 4 | 20 | 4 | 19 | 93% | % activity [4, 11]: 75%; % activity [4, 12]: 90%
CCCS(=O)(=O)c1nnc(C(=O)OCC)s1 [5-propylsulfonyl-1,3,4-thiadiazole-2-carboxylic acid-ethylester] | – | – | – | – | – | – | – | – | – | 93% | –
CCCS(=O)(=O)c1nnc(C#N)s1 [5-propylsulfonyl-1,3,4-thiadiazole-2-carbonitrile] | – | 100% | 100% | – | – | – | – | – | – | 99.5% | % activity ([5]; 10 g active agent per 100 kg): 99%; number of sound peas ([8]; 25 mg/l soil): 18; root evaluation (1-4) ([8]; 25 mg/l soil): 4; number of sound peas ([8]; 50 mg/l soil): 20; root evaluation (1-4) ([8]; 50 mg/l soil): 4; number of sound peas ([8]; 100 mg/l soil): 20; root evaluation (1-4) ([8]; 100 mg/l soil): 4
CCCNC(=O)c1nnc([S+]([O-])CCC)s1 (centres unmarked) [5-propylsulfinyl-1,3,4-thiadiazole-2-carboxylic acid-propylamide] | 94% | 99.3% | 100% | – | – | – | – | – | – | 93% | –
CCC[S+]([O-])c1nnc(C(=O)NCC)s1 (centres unmarked) [5-propylsulfinyl-1,3,4-thiadiazole-2-carboxylic acid-ethylamide] | 94% | – | – | – | – | – | – | – | – | 90% | –
N#CC1=C(C#N)C(=O)c2cc3ccccc3cc2C1=O [2,3-dinitrilo-1,4-anthraquinone, reference compound] | – | – | – | – | – | – | – | – | – | – | % activity [3, 9]: 86%; % activity [3, 10]: 94%
CCCS(=O)(=O)c1nnc(C(=O)NC(C)C)s1 [5-propylsulfonyl-1,3,4-thiadiazole-2-carboxylic acid-isopropylamide] | – | 99.8% | 100% | 1 | 9 | 4 | 20 | 4 | 18 | 90% | % activity ([5]; 10 g active agent per 100 kg): 98%; number of sound peas ([8]; 25 mg/l soil): 14; root evaluation (1-4) ([8]; 25 mg/l soil): 2; number of sound peas ([8]; 50 mg/l soil): 16; root evaluation (1-4) ([8]; 50 mg/l soil): 3; number of sound peas ([8]; 100 mg/l soil): 17; root evaluation (1-4) ([8]; 100 mg/l soil): 4
CC(C)S(=O)(=O)c1nnc(C(=O)NCC2CCCCC2)s1 [5-isopropylsulfonyl-1,3,4-thiadiazole-2-carboxylic acid-cyclohexylmethylamide] | – | 92% | 97% | – | – | – | – | – | – | 98% | % activity [4, 11]: 92%; % activity [4, 12]: 97%
CCCC[S+]([O-])c1nnc(C(N)=O)s1 (centres unmarked) [5-butylsulfinyl-1,3,4-thiadiazole-2-carboxamide] | – | 95% | 100% | 1 | 10 | 4 | 15 | 4 | 19 | 93% | % activity [4, 14]: 75%; % activity [4, 11]: 99.8%; % activity [4, 12]: 100%
COCCCNC(=O)c1nnc(S(C)(=O)=O)s1 [5-methylsulfonyl-1,3,4-thiadiazole-2-carboxylic acid-(3-methoxypropyl)-amide] | – | – | – | 1 | 9 | 4 | 20 | 4 | 19 | 90% | –
CC(C)CS(=O)(=O)c1nnc(C#N)s1 [5-isobutylsulfonyl-1,3,4-thiadiazole-2-carbonitrile] | – | 93% | 100% | – | – | – | – | – | – | 100% | % activity [4, 14]: 79%; % activity [4, 11]: 87%; % activity [4, 12]: 99%; number of sound peas ([8]; 25 mg/l soil): 19; root evaluation (1-4) ([8]; 25 mg/l soil): 4; number of sound peas ([8]; 50 mg/l soil): 20; root evaluation (1-4) ([8]; 50 mg/l soil): 4; number of sound peas ([8]; 100 mg/l soil): 19; root evaluation (1-4) ([8]; 100 mg/l soil): 4
CCC(C)S(=O)(=O)c1nnc(C#N)s1 (centres unmarked) [5-sec.-butylsulfonyl-1,3,4-thiadiazole-2-carbonitrile] | – | 91% | 98% | – | – | – | – | – | – | 99.5% | % activity ([5]; 10 g active agent per 100 kg): 75%; number of sound peas ([8]; 25 mg/l soil): 20; root evaluation (1-4) ([8]; 25 mg/l soil): 4; number of sound peas ([8]; 50 mg/l soil): 19; root evaluation (1-4) ([8]; 50 mg/l soil): 4; number of sound peas ([8]; 100 mg/l soil): 20; root evaluation (1-4) ([8]; 100 mg/l soil): 4
C=CCNC(=O)c1nnc(S(=O)(=O)CCC)s1 [5-propylsulfonyl-1,3,4-thiadiazole-2-carboxylic acid-allylamide] | – | 99.7% | 100% | 3 | 13 | 4 | 15 | 4 | 15 | 93% | % activity ([5]; 10 g active agent per 100 kg): 99.3%
C=CCNC(=O)c1nnc(S(C)(=O)=O)s1 [5-methylsulfonyl-1,3,4-thiadiazole-2-carboxylic acid-allylamide] | 100% | 100% | 100% | 4 | 19 | 4 | 18 | 4 | 18 | 94% | –
